# Assay results taken from ChEMBL document CHEMBL1201862, “PubChem BioAssay data set” (2004).
#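 Protocol summary: plate cells (96-well), add compound at 5 concentrations, incubate 48 h, interpolate endpoints linearly. GI50 is the concentration that inhibits growth by half.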 Activity calls are given as the source filed them. No stated cut-off is given here; in the data, active = GI50 up to about 1.1 µM and inactive = higher.
# How the values were obtained:
# Test in all cases: NCI anticancer screen, dose series, 48 h
# 786-0 = tested on: 786-0
# A549 = tested on: A549
# ACHN = tested on: ACHN
# CAKI-1 = tested on: CAKI-1
# CCRF-CEM = tested on: CCRF-CEM
# COLO 205 = tested on: COLO 205
# DU-145 = tested on: DU-145
# EKVX = tested on: EKVX
# HCC 2998 = tested on: HCC 2998
# HCT-116 = tested on: HCT-116
# HCT-15 = tested on: HCT-15
# HL-60 = tested on: HL-60
# HOP-62 = tested on: HOP-62
# HOP-92 = tested on: HOP-92
# HT-29 = tested on: HT-29
# Hs-578T = tested on: Hs-578T
# IGROV-1 = tested on: IGROV-1
# K562 = tested on: K562
# KM12 = tested on: KM12
# M14 = tested on: M14
# MCF7 = tested on: MCF7
# MDA-MB-231 = tested on: MDA-MB-231
# MDA-MB-435 = tested on: MDA-MB-435
# MOLT-4 = tested on: MOLT-4
# Malme-3M = tested on: Malme-3M
# NCI-H226 = tested on: NCI-H226
# NCI-H23 = tested on: NCI-H23
# NCI-H460 = tested on: NCI-H460
# NCI-H522 = tested on: NCI-H522
# NCI/ADR-RES = tested on: NCI/ADR-RES
# OVCAR-3 = tested on: OVCAR-3
# OVCAR-4 = tested on: OVCAR-4
# OVCAR-5 = tested on: OVCAR-5
# OVCAR-8 = tested on: OVCAR-8
# PC-3 = tested on: PC-3
# RPMI-8226 = tested on: RPMI-8226
# RXF 393 = tested on: RXF 393
# SF-268 = tested on: SF-268
# SF-295 = tested on: SF-295
# SF-539 = tested on: SF-539
# SK-MEL-28 = tested on: SK-MEL-28
# SK-MEL-2 = tested on: SK-MEL-2
# SK-MEL-5 = tested on: SK-MEL-5
# SK-OV-3 = tested on: SK-OV-3
# SN12C = tested on: SN12C
# SNB-19 = tested on: SNB-19
# SNB-75 = tested on: SNB-75
# SR = tested on: SR
# SW-620 = tested on: SW-620
# T47D = tested on: T47D
# TK-10 = tested on: TK-10
# UACC-257 = tested on: UACC-257
# UACC-62 = tested on: UACC-62
# UO-31 = tested on: UO-31
# U-251 = tested on: U-251
smiles,measurement,setting,value
Nc1ncc(Cc2nn3c(COc4ccc(Cl)cc4)nnc3s2)s1,GI50,786-0,> 100 µM (inactive)
same,GI50,A549,> 100 µM (inactive)
same,GI50,ACHN,0.0543 µM (active)
same,GI50,CAKI-1,> 100 µM (inactive)
same,GI50,CCRF-CEM,> 100 µM (inactive)
same,GI50,COLO 205,> 100 µM (inactive)
same,GI50,DU-145,> 100 µM (inactive)
same,GI50,EKVX,> 100 µM (inactive)
same,GI50,HCC 2998,> 100 µM (inactive)
same,GI50,HCT-116,> 100 µM (inactive)
same,GI50,HCT-15,0.748 µM
same,GI50,HL-60,> 100 µM (inactive)
same,GI50,HOP-62,> 100 µM (inactive)
same,GI50,HOP-92,> 100 µM (inactive)
same,GI50,HT-29,> 100 µM (inactive)
same,GI50,Hs-578T,> 100 µM (inactive)
same,GI50,IGROV-1,> 100 µM (inactive)
same,GI50,K562,> 100 µM (inactive)
same,GI50,KM12,7.45 µM (inactive)
same,GI50,M14,> 100 µM (inactive)
same,GI50,MCF7,> 100 µM (inactive)
same,GI50,MDA-MB-231,> 100 µM (inactive)
same,GI50,MDA-MB-435,> 100 µM (inactive)
same,GI50,MOLT-4,> 100 µM (inactive)
same,GI50,Malme-3M,3.61 µM (inactive)
same,GI50,NCI-H226,> 100 µM (inactive)
same,GI50,NCI-H23,> 100 µM (inactive)
same,GI50,NCI-H460,> 100 µM (inactive)
same,GI50,NCI-H522,> 100 µM (inactive)
same,GI50,NCI/ADR-RES,> 100 µM (inactive)
same,GI50,OVCAR-3,> 100 µM (inactive)
same,GI50,OVCAR-4,> 100 µM (inactive)
same,GI50,OVCAR-5,> 100 µM (inactive)
same,GI50,OVCAR-8,> 100 µM (inactive)
same,GI50,PC-3,> 100 µM (inactive)
same,GI50,RPMI-8226,> 100 µM (inactive)
same,GI50,RXF 393,> 100 µM (inactive)
same,GI50,SF-268,> 100 µM (inactive)
same,GI50,SF-295,> 100 µM (inactive)
same,GI50,SF-539,> 100 µM (inactive)
same,GI50,SK-MEL-28,> 100 µM (inactive)
same,GI50,SK-MEL-2,> 100 µM (inactive)
same,GI50,SK-MEL-5,> 100 µM (inactive)
same,GI50,SK-OV-3,> 100 µM (inactive)
same,GI50,SN12C,> 100 µM (inactive)
same,GI50,SNB-19,> 100 µM (inactive)
same,GI50,SNB-75,> 100 µM (inactive)
same,GI50,SR,49.2 µM (inactive)
same,GI50,SW-620,> 100 µM (inactive)
same,GI50,T47D,> 100 µM (inactive)
same,GI50,TK-10,45.2 µM (inactive)
same,GI50,UACC-257,> 100 µM (inactive)
same,GI50,UACC-62,> 100 µM (inactive)
same,GI50,UO-31,> 100 µM (inactive)
Cc1cn(Cc2ccccc2CCl)c(=O)[nH]c1=O,GI50,786-0,14.2 µM (inactive)
same,GI50,A549,16.9 µM (inactive)
same,GI50,ACHN,12.6 µM (inactive)
same,GI50,CAKI-1,10.4 µM (inactive)
same,GI50,CCRF-CEM,4.58 µM (inactive)
same,GI50,COLO 205,17.1 µM (inactive)
same,GI50,DU-145,13.1 µM (inactive)
same,GI50,EKVX,16.4 µM (inactive)
same,GI50,HCC 2998,15.3 µM (inactive)
same,GI50,HCT-116,4.53 µM (inactive)
same,GI50,HCT-15,14.8 µM
same,GI50,HL-60,3.08 µM (inactive)
same,GI50,HOP-62,15.6 µM (inactive)
same,GI50,HOP-92,25.4 µM (inactive)
same,GI50,HT-29,15.4 µM (inactive)
same,GI50,Hs-578T,14.2 µM (inactive)
same,GI50,IGROV-1,3.46 µM (inactive)
same,GI50,K562,4.72 µM (inactive)
same,GI50,KM12,12.9 µM (inactive)
same,GI50,M14,12.9 µM (inactive)
same,GI50,MCF7,4.84 µM (inactive)
same,GI50,MDA-MB-435,11.5 µM (inactive)
same,GI50,MOLT-4,3.15 µM (inactive)
same,GI50,Malme-3M,21.3 µM (inactive)
same,GI50,NCI-H23,10.2 µM (inactive)
same,GI50,NCI-H460,21.1 µM (inactive)
same,GI50,NCI-H522,6.34 µM (inactive)
same,GI50,NCI/ADR-RES,18.2 µM (inactive)
same,GI50,OVCAR-3,4.24 µM (inactive)
same,GI50,OVCAR-4,34.3 µM (inactive)
same,GI50,OVCAR-5,23.3 µM (inactive)
same,GI50,OVCAR-8,12.1 µM (inactive)
same,GI50,PC-3,16 µM (inactive)
same,GI50,RXF 393,8 µM (inactive)
same,GI50,SF-268,13 µM (inactive)
same,GI50,SF-295,13.8 µM (inactive)
same,GI50,SF-539,5.56 µM (inactive)
same,GI50,SK-MEL-28,19.4 µM (inactive)
same,GI50,SK-MEL-2,14.3 µM (inactive)
same,GI50,SK-MEL-5,7.4 µM (inactive)
same,GI50,SK-OV-3,26.4 µM (inactive)
same,GI50,SN12C,12.6 µM (inactive)
same,GI50,SNB-19,12.3 µM (inactive)
same,GI50,SNB-75,14.6 µM (inactive)
same,GI50,SW-620,8.15 µM (inactive)
same,GI50,T47D,11.5 µM (inactive)
same,GI50,TK-10,15.3 µM (inactive)
same,GI50,U-251,7.94 µM (inactive)
same,GI50,UACC-257,13.4 µM (inactive)
same,GI50,UACC-62,4.68 µM (inactive)
same,GI50,UO-31,11.6 µM (inactive)
